Assay results as given in patent publication US7427627B2, “N-(4-(4-methylthiazol-5-yl) pyrimidin-2-yl)-N-phenylamines as antiproliferative compounds” (Cyclacel Limited, priority 2001, dated 2008).
Like-named read-outs stand apart in the source and are kept apart here.

Experiments:
[1] = test system: Saos-2; assay: 72-h MTT cytotoxicity assay, Saos-2; format: cell-based; conditions: Homo sapiens
Experimental: (§1) The compounds from the examples above were subjected to a standard cellular proliferation assay using human tumour cell lines obtained from the ATCC (American Type Culture Collection, 10801 University Boulevard, Manessas, Va. 20110-2209, USA). Standard 72-h MTT (thiazolyl blue; 3-[4,5-dimethylthiazol-2-yl]-2,5-diphenyltetrazolium bromide) assays were performed (Haselsberger, K.; Peterson, D. C.; Thomas, D. G.; Darling, J. L. Anti Cancer Drugs 1996, 7, 331-8; Loveland, B. E.; Johns, T. G.; Mackay, I. R.; Vaillant, F.; Wang, Z. X.; Hertzog, P. J. Biochemistry International 1992, 27, 501-10). In short: cells were seeded into 96-well plates according to doubling time and incubated overnight at 37° C. Test compounds were made up in DMSO and a 1/3 dilution series prepared in 100 μL cell media, added to cells (in triplicates) and incubated for 72 ho at 37° C. MTT was made up as a stock of 5 mg/mL in cell media and filter-sterilised. Media was removed from cells followed by a wash with 200 μL PBS. MTT solution was then added at 20 μL per well and incubated in the dark at 37° C. for 4 h. MTT solution was removed and cells again washed with 200 μL PBS. MTT dye was solubilised with 200 μL per well of DMSO with agitation.

[2] = test system: IMR-90; assay: 72-h MTT assay, IMR-90; format: cell-based; conditions: Homo sapiens, IMR-90, 72 h, read-out: 72-h MTT IC50 IMR-90; Table 3; Foetal lung fibroblast (non-transformed)
Experimental: as §1

[3] = test system: Messa-Dx5; assay: 72-h MTT assay, Messa-Dx5; format: cell-based; conditions: Homo sapiens, MES-SA/Dx5, 72 h, read-out: 72-h MTT IC50 Messa-Dx5; Table 3; Uterine
Experimental: as §1

[4] = test system: SKUT-1B; assay: 72-h MTT assay, SKUT-1B; format: cell-based; conditions: Homo sapiens, Skut1B, read-out: 72-h MTT IC50 SKUT-1B, Table 3, Leiomyosarcoma
Experimental: as §1

[5] = test system: Messa; assay: 72-h MTT assay, Messa; format: cell-based; conditions: Homo sapiens, MES-SA, read-out: 72-h MTT IC50 Messa, Table 3, Uterine
Experimental: as §1

[6] = test system: Lovo; assay: 72-h MTT assay, Lovo; format: cell-based; conditions: Homo sapiens, read-out: 72-h MTT IC50 Lovo, Table 3, Colon
Experimental: as §1

[7] = test system: tumour cells; assay: 72-h MTT assay, mean over tumour cell lines; format: cell-based; conditions: Homo sapiens, Table 3
Experimental: as §1

[8] = test system: Hela; assay: 72-h MTT assay, Hela; format: cell-based; conditions: Homo sapiens, read-out: 72-h MTT IC50 Hela, Table 3, Cervix
Experimental: as §1

[9] = test system: SKUT-1; assay: 72-h MTT assay, SKUT-1; format: cell-based; conditions: Homo sapiens, SK-UT-1, 72 h, read-out: 72-h MTT IC50 SKUT-1; Table 3; Leiomyosarcoma
Experimental: as §1

[10] = target: T1, CDK2/cyclin E (Homo sapiens, UniProt P24941); assay: Kinase assay CDK2/cyclin E; format: biochemical; conditions: Table 1; read-out: Kinase inhibition, IC50 (μM) CDK2/E
T1 construct: His6

[11] = test system: HT29; assay: 72-h MTT cytotoxicity assay, HT29; format: cell-based; conditions: Homo sapiens
Experimental: as §1

[12] = test system: SK-N-MC; assay: 72-h MTT assay, SK-N-MC; format: cell-based; conditions: Homo sapiens, read-out: 72-h MTT IC50 SK-N-MC, Table 3, Neuroblastoma
Experimental: as §1

[13] = test system: nci-H460; assay: 72-h MTT assay, nci-H460; format: cell-based; conditions: Homo sapiens, NCI-H460, 72 h, read-out: 72-h MTT IC50 nci-H460; Table 3; Lung
Experimental: as §1

[14] = test system: Hs27; assay: 72-h MTT assay, Hs27; format: cell-based; conditions: Homo sapiens, HS27, 72 h, read-out: 72-h MTT IC50 Hs27; Table 3; Foreskin fibroblast (non-transformed)
Experimental: as §1

[15] = test system: H1299; assay: 72-h MTT assay, H1299; format: cell-based; conditions: Homo sapiens, NCI-H1299, 72 h, read-out: 72-h MTT IC50 H1299; Table 3; Lung
Experimental: as §1

[16] = test system: K562; assay: 72-h MTT assay, K562; format: cell-based; conditions: Homo sapiens, K562, 72 h, read-out: 72-h MTT IC50 K562; Table 3; Chronic myelogenous leukaemia
Experimental: as §1

[17] = test system: Hacat; assay: 72-h MTT assay, Hacat; format: cell-based; conditions: Homo sapiens, read-out: 72-h MTT IC50 Hacat, Table 3, Skin keratinocytes
Experimental: as §1

[18] = test system: CCRF-CEM; assay: 72-h MTT assay, CCRF-CEM; format: cell-based; conditions: Homo sapiens, read-out: 72-h MTT IC50 CCRF-CEM, Table 3, Leukaemia
Experimental: as §1

[19] = test system: MCF-7; assay: 72-h MTT assay, MCF-7; format: cell-based; conditions: Homo sapiens, MCF7, 72 h, read-out: 72-h MTT IC50 MCF-7; Table 3; Breast
Experimental: as §1

[20] = test system: WI38; assay: 72-h MTT assay, WI38; format: cell-based; conditions: Homo sapiens, WI-38, 72 h, read-out: 72-h MTT IC50 WI38; Table 3; Foetal lung (non-transformed)
Experimental: as §1

[21] = test system: U2OS; assay: 72-h MTT assay, U2OS; format: cell-based; conditions: Homo sapiens, read-out: 72-h MTT IC50 U2OS, Table 3, Bone osteosarcoma
Experimental: as §1

[22] = test system: SJSA-1; assay: 72-h MTT assay, SJSA-1; format: cell-based; conditions: Homo sapiens, SJSA-1, 72 h, read-out: 72-h MTT IC50 SJSA-1; Table 3; Osteogenic sarcoma
Experimental: as §1

[23] = test system: AGS; assay: 72-h MTT assay, AGS; format: cell-based; conditions: Homo sapiens, read-out: 72-h MTT IC50 AGS, Table 3, Gastric adenocarcinoma
Experimental: as §1

[24] = test system: DU-145; assay: 72-h MTT assay, DU-145; format: cell-based; conditions: Homo sapiens, DU-145, 72 h, read-out: 72-h MTT IC50 DU-145; Table 3; Prostate
Experimental: as §1

[25] = test system: A549; assay: 72-h MTT cytotoxicity assay, A549; format: cell-based, human; conditions: Homo sapiens
Experimental: In short: cells were seeded into 96-well plates according to doubling time and incubated overnight at 37° C. Test compounds were made up in DMSO and a 1/3 dilution series prepared in 100 μL cell media, added to cells (in triplicates) and incubated for 72 ho at 37° C. MTT was made up as a stock of 5 mg/mL in cell media and filter-sterilised. Media was removed from cells followed by a wash with 200 μL PBS. MTT solution was then added at 20 μL per well and incubated in the dark at 37° C. for 4 h. MTT solution was removed and cells again washed with 200 μL PBS. MTT dye was solubilised with 200 μL per well of DMSO with agitation.

[26] = test system: HL60; assay: 72-h MTT assay, HL60; format: cell-based; conditions: Homo sapiens, HL-60, 72 h, read-out: 72-h MTT IC50 HL60; Table 3; Promyelocytic leukaemia
Experimental: as §1

[27] = target: CDK4/cyclin D1 (Homo sapiens, UniProt P11802); assay: Kinase assay CDK4/cyclin D1;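 note: Enzyme: His6-tagged recombinant human CDK4 produced in baculovirus-infected Sf9 insect cells and purified by metal-chelate chromatography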
Sequence of CDK4/cyclin D1 (P11802 whole entry): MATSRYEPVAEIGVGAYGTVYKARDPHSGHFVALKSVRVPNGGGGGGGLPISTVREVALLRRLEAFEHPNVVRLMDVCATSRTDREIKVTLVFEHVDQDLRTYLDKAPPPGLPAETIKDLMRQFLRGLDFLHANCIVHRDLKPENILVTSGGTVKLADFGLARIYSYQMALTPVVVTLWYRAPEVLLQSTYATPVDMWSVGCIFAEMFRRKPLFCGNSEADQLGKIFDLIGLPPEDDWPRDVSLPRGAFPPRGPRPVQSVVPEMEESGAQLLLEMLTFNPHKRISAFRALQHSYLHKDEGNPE
Sequence of CDK4/cyclin D1 (P24385 whole entry partner): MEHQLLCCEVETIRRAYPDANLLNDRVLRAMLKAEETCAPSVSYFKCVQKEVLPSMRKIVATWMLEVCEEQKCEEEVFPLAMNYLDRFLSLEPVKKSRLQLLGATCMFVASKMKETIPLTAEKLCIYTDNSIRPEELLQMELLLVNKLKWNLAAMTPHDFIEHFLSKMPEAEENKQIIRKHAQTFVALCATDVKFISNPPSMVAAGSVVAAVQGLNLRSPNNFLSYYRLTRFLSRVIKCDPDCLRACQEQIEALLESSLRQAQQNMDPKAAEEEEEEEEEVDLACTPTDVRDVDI

[28] = test system: HCT-116; assay: 72-h MTT assay, HCT-116; format: cell-based; conditions: Homo sapiens, HCT-116, 72 h, read-out: 72-h MTT IC50 HCT-116; Table 3; Colon
Experimental: as §1

[29] = target: CDK7-cyclin H-MAT 1 complex (Homo sapiens, UniProt P50613); assay: Kinase specificity assay CDK7/H; format: biochemical; conditions: Table 2
[30] = target: Ableson tyrosine kinase (Homo sapiens, UniProt P00519); assay: Kinase specificity assay Abl; format: biochemical; conditions: Table 2
Sequence of Ableson tyrosine kinase (P00519 whole entry): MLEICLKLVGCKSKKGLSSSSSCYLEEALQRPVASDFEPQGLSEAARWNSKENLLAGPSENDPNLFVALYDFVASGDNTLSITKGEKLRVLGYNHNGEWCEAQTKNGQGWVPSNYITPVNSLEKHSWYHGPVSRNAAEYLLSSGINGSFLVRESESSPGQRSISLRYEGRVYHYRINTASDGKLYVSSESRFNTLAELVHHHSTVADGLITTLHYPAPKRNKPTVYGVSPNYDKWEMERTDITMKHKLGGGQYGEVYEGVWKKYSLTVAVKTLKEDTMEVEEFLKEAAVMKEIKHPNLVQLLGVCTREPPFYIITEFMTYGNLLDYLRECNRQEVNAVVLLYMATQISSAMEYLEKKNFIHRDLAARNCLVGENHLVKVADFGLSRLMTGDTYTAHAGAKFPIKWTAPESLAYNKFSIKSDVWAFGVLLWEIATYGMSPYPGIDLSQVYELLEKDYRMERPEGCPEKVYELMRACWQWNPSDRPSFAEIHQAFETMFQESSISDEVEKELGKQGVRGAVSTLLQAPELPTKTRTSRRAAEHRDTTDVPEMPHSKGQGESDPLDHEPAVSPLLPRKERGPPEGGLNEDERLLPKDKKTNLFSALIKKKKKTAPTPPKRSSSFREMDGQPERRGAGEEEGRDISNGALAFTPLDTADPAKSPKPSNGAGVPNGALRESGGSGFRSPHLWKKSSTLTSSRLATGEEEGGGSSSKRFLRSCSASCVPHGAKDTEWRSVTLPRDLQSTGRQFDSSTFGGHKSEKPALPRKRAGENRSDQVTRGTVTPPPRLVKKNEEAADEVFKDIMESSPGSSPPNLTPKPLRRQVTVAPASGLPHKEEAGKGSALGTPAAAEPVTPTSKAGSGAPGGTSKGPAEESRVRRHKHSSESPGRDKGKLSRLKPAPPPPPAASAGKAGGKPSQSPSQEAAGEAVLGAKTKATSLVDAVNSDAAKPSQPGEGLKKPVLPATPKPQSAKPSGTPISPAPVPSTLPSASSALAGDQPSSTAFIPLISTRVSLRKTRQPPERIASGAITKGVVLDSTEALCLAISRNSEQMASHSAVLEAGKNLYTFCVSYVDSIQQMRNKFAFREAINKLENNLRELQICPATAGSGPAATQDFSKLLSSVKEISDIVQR

[31] = target: T2, protein kinase C α (Homo sapiens, UniProt P17252); assay: Kinase specificity assay PKCα; format: biochemical; conditions: Table 2
T2 construct: His6
Experimental: PKCα kinase activity may be measured by the incorporation of radio-labeled phosphate in Histone 3, as described. The reaction mixture (total volume 65 μl) consist of 50 mM Tris-HCl, 1 mM Calcium acetate, 3 mM DTT, 0.03 mg/ml Phosphatidylserine, 2.4 μg/ml PMA, 0.04% NP40, 12 mM Mg/Cl, purified PKCα-100 ng, Histone 3, 0.2 mg/ml, 100 μM ATP, 0.2 μCi [γ-^32P]-ATP. The reaction is carried over 15 min at 37° C. in microplate shaker and is stopped by adding 10 μl 75 mM orthophosphoric acid and placing the plate on ice. 50 μl of the reaction mixture is transferred onto P81 filterplate and after washing off the free radioactive phosphate (3 times with 200 μl 75 mM orthophosphoric acid per well) 50 μl of scintillation liquid (Microscint 40) were added to each well and the radioactivity is measured on Scintillation counter (Topcount, HP).

[32] = target: calmodulin-dependent kinase II; conditions: read-out: Kinase specificity IC50 Cam-KII; Table 2
[33] = target: T3, CDK1-cyclin B1 complex (Homo sapiens, UniProt P06493); assay: Kinase specificity assay CDK1/B1; format: biochemical; conditions: Table 2
T3 construct: His6
T3 sequence (P06493 whole entry): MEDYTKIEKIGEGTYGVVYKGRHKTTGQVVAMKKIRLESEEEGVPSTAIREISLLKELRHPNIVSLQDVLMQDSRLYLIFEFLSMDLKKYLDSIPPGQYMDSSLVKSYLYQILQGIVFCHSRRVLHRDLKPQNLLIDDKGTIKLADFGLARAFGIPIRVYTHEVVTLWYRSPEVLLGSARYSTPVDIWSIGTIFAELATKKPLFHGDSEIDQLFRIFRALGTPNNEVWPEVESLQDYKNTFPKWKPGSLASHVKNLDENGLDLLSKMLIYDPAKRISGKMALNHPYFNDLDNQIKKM
T3 sequence (P14635 whole entry partner): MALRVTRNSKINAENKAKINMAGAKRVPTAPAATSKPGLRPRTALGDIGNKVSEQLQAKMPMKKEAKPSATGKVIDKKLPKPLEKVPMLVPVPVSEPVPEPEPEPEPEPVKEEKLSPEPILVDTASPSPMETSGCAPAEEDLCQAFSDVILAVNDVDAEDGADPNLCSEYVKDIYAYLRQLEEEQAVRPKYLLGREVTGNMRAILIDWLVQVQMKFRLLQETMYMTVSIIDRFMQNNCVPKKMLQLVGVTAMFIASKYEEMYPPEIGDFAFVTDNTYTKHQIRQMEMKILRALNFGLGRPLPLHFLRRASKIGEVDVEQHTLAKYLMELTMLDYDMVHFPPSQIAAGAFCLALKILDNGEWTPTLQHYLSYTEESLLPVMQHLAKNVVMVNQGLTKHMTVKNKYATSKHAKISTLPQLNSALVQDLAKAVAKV

[34] = target: stress-activated protein kinase 2a (Homo sapiens, UniProt Q16539); assay: Kinase specificity assay SAPK2a; format: biochemical; conditions: Table 2
Sequence of stress-activated protein kinase 2a (Q16539 whole entry): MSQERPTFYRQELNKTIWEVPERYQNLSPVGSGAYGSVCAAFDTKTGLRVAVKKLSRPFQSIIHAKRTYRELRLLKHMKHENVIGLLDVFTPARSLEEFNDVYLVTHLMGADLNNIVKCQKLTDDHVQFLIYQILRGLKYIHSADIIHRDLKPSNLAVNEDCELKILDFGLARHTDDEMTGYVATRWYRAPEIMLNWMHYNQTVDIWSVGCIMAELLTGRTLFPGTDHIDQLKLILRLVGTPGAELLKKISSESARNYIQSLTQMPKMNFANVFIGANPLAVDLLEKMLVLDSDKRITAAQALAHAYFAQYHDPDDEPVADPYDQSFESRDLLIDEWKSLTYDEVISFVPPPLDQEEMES

[35] = target: glycogen synthase kinase 3β (Homo sapiens, UniProt P49841); assay: Kinase specificity assay GSK3β; format: biochemical; conditions: Table 2
Sequence of glycogen synthase kinase 3β (P49841 whole entry): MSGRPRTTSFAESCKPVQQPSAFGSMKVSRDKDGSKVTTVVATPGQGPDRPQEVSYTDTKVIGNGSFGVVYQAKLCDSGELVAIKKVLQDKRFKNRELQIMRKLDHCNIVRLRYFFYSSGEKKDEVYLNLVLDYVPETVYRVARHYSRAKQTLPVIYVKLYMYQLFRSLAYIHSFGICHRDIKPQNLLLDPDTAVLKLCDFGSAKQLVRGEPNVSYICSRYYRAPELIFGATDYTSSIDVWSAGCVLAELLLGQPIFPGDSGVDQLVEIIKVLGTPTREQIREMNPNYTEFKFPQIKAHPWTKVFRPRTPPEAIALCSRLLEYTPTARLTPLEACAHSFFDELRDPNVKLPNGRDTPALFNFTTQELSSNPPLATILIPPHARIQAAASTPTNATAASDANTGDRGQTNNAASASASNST

[36] = target: protein kinase B (Homo sapiens, UniProt P31749); assay: Kinase specificity assay Akt/PKB; format: biochemical; conditions: Table 2
Sequence of protein kinase B (P31749 whole entry): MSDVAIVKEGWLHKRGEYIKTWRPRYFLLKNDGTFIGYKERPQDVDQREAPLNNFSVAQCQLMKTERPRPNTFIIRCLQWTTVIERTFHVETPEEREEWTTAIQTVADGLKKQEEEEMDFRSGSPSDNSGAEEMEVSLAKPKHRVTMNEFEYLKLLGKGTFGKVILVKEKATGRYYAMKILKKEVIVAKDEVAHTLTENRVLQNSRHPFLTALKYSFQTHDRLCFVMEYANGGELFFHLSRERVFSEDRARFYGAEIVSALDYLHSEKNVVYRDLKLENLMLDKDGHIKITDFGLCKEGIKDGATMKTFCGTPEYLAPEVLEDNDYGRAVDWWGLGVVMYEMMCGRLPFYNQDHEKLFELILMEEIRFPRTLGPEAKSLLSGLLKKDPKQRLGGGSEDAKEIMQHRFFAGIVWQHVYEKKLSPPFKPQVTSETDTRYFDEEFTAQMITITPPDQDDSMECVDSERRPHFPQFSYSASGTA

[37] = target: extracellular-signal-regulated kinase 2 (Homo sapiens, UniProt P28482); assay: Kinase specificity assay ERK-2; format: biochemical; conditions: Table 2
[38] = target: p70 ribosomal protein S6 kinase (Homo sapiens, UniProt P23443); assay: Kinase specificity assay p70-S6K; format: biochemical; conditions: Table 2
Sequence of p70 ribosomal protein S6 kinase (P23443 24-525): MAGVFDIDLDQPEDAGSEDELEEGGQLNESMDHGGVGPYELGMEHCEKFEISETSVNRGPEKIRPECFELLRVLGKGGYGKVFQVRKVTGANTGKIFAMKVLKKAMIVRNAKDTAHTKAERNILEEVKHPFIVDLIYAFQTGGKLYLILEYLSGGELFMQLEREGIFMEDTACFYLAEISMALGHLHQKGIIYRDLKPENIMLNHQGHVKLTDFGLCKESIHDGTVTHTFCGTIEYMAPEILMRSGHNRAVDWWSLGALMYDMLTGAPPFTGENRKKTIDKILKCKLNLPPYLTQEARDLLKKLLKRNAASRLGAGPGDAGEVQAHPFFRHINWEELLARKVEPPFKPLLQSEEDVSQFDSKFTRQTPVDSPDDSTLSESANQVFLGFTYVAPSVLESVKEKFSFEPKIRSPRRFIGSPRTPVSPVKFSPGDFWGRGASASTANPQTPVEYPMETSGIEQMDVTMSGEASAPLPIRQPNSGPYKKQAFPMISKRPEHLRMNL

[39] = target: polo-like kinase 1 (Homo sapiens, UniProt P53350); assay: Kinase specificity assay Plk1; format: biochemical; conditions: Table 2
Sequence of polo-like kinase 1 (P53350 whole entry): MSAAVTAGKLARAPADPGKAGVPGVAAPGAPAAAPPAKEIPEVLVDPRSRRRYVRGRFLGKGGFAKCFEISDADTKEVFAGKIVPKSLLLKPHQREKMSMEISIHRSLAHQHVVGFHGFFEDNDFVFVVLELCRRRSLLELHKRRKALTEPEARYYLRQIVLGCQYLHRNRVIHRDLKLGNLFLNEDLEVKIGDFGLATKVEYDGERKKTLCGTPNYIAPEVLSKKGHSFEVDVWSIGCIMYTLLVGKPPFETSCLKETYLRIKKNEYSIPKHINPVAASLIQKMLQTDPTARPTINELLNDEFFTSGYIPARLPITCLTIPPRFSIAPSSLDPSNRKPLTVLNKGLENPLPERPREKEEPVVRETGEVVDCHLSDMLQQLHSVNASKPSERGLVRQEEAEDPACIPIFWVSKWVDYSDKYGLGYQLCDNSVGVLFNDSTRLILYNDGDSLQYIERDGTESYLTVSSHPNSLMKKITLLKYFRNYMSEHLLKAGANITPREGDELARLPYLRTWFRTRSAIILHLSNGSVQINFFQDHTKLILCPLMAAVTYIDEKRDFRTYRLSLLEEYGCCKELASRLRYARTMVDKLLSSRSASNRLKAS

[40] = SAOS-2, 72 h, read-out: 72-h MTT IC50 Saos-2, Table 3, Bone osteosarcoma
[41] = SAOS-2, read-out: 72-h MTT in vitro IC50 (μM) Saos-2, Table 1, 72 h
[42] = HT-29, 72 h, read-out: 72-h MTT IC50 HT29, Table 3, Colon
[43] = HT-29, read-out: 72-h MTT in vitro IC50 (μM) HT29, Table 1, 72 h
[44] = A549, 72 h, read-out: 72-h MTT IC50 A549, Table 3, Lung
[45] = A549, read-out: 72-h MTT in vitro IC50 (μM) A549, Table 1, 72 h

Structure (SMILES) | IC50 [1, 40] [µM] | IC50 [1, 41] [µM] | IC50 [2] [nM] | IC50 [3] [nM] | IC50 [4] [nM] | IC50 [5] [nM] | IC50 [6] [nM] | IC50 [7] [nM] | IC50 [8] [nM] | IC50 [9] [nM] | IC50 [10] [µM] | IC50 [11, 42] [µM] | IC50 [11, 43] [µM] | IC50 [12] [nM] | IC50 [13] [nM] | IC50 [14] [nM] | IC50 [15] [nM] | IC50 [16] [nM] | IC50 [17] [nM] | IC50 [18] [nM] | other results
Cc1nc(N)sc1-c1ccnc(Nc2cccc(I)c2)n1 [Compound 10, [4-(2-Amino-4-methyl-thiazol-5-yl)-pyrimidin-2-yl]-(3-iodo-phenyl)-amine] | 0.43 | 0.58 | > 5000 | 130 | 40 | 110 | 130 | 280 | 140 | 300 | 0.05 | 0.1 | 0.51 | 280 | 180 | > 5000 | 270 | 150 | 170 | 260 | IC50 [19]: 190 nM; IC50 [20]: > 5000 nM; IC50 [21]: 500 nM; IC50 [22]: 850 nM; IC50 [23]: 300 nM; IC50 [24]: 750 nM; IC50 [25, 44]: 0.6 µM; IC50 [25, 45]: 0.29 µM; IC50 [26]: 70 nM; IC50 [27]: 240 nM; IC50 [28]: 280 nM
Cc1nc(N)sc1-c1ccnc(Nc2ccc(CCO)cc2)n1 [Compound 15, 2-{4-[4-(2-Amino-4-methyl-thiazol-5-yl)-pyrimidin-2-ylamino]-phenyl}-ethanol] | 0.93 | 2.84 | > 5000 | 140 | 390 | 550 | 230 | 1030 | 550 | 810 | 0.43 | 0.41 | 3.8 | 580 | 600 | > 5000 | 630 | 1350 | 730 | 850 | IC50 [19]: 4740 nM; IC50 [20]: > 5000 nM; IC50 [22]: 1500 nM; IC50 [23]: 1050 nM; IC50 [24]: 980 nM; IC50 [25, 44]: 0.95 µM; IC50 [25, 45]: 3.04 µM; IC50 [26]: 2870 nM; IC50 [27]: 1360 nM; IC50 [28]: 690 nM
Cc1nc(C)c(-c2ccnc(Nc3ccc(N(C)C)c([N+](=O)[O-])c3)n2)s1 [Compound 25, N^4-[4-(2,4-Dimethyl-thiazol-5-yl)-pyrimidin-2-yl-]-N^1,N^1-dimethyl-2-nitro-benzene-1,4-diamine] | – | 0.35 | – | – | – | – | – | – | – | – | – | – | 0.3 | – | – | – | – | – | – | – | IC50 [29]: 1300 nM; IC50 [30]: 9900 nM; IC50 [31]: > 100000 nM; IC50 [32]: > 100000 nM; IC50 [33]: 120 nM; IC50 [34]: > 100000 nM; IC50 [35]: 900 nM; IC50 [36]: 61000 nM; IC50 [37]: > 100000 nM; IC50 ([25]; A549, 72 h, read-out: 72-h MTT in vitro IC50 (μM) A549): 0.43 µM; IC50 [38]: 25000 nM; IC50 [39]: > 100000 nM
